Measured values published in patent publication US10597366B2, “Aryl ethers and uses thereof” (Peloton Therapeutics, Inc., priority 2013, dated 2020).
Where two headings read alike, the source gives them in different places.

Tests used:
[1] = system: VEGFA concentration in medium of 786-O cells; assay: VEGF ELISA Assay; type: cell-based; settings: Homo sapiens
Description: Each concentration had duplicated wells. About 20 hours later, medium was removed by suction and each well was supplied with 180 μL of growth medium. About 20 μl freshly-made 10× compound stocks were added to each well. […] The EC50 was calculated by GraphPad Prism using the dose-response-inhibition (four parameter) equation. The cell seeded plate was then subjected to CellTiter-Glo luminescence cell viability assay (Promega) by adding 50 μL of Celltiter Glo reagent into each well and shaking the plate for 8 minutes at 550 rpm (Thermomixer R, Eppendorf) then read luminescence signal in plate reader (3 second delay, 0.5 second/well integration time, Synergy 2 multi Detection Microplate reader) immediately.

[2] = system: 786-O-Hif-Luc cells (luciferase gene driven by multiple HIF responsive elements); assay: Luciferase Assay; type: cell-based; settings: 24 h, read-out: Mean Luciferease EC50
Description: A pool of infected cells were then selected against 2 μg/mL of puromycin (P8833, Sigma) for 10 days followed by limited dilution to select single clones.
Each concentration was tested in triplicate. After about 24 hours, luciferase activity was determined using ONE-Glo Luciferase Assay Reagent (E6110, Promega) following the manufacturer's recommended procedure. EC50 were calculated by using Dotmatics software.

[3] = system: HIF-2α HIS TAG-PASB Domain; assay: HIF-2α Scintillation Proximity Assay (SPA); type: binding; settings: compounds listed by structure and IUPAC name
Description: The percent inhibition was determined and IC50 values were calculated using the Dotmatics system based on the following equation: % inhibition=[(high control sample)/(high control low control)]×100.

[4] = 786-0, 786-O cells, read-out: Mean VEGF ELISA EC50
[5] = 786-O-Hif-Luc cells, about 24 hours
[6] = 786-0, read-out: Mean VEGF ELISA EC50

| EC50 [1, 4] [nM] | IC50 [3] [µM] | SMILES | also measured |
| --- | --- | --- | --- |
| 17 | – | CS(=O)(=NC#N)c1ccc(Oc2cc(F)cc(C#N)c2)c2c1[C@H](O)C(F)(F)[C@@H]2F (single isomer, unassigned) [Compound 316] | EC50 [2, 5]: 12 nM |
| – | > 100 | O=C1CCc2c(Oc3cc(F)cc(Cl)c3)cccc21 [4-(3-chloro-5-fluoro-phenoxy)indan-1-one] | – |
| – | > 100 | Cc1c(Oc2cc(F)cc(C#N)c2)ccc(S(=O)(=O)C(F)(F)F)c1/C=C/C(N)=O [(E)-3-[3-(3-cyano-5-fluoro-phenoxy)-2-methyl-6-(trifluoromethylsulfonyl)phenyl]prop-2-enamide] | – |
| 62 | – | O=S(=O)(c1ccc(Oc2cc(F)cc(F)c2)c2c1[C@H](O)CC2)C(F)F [Compound 2, (R)-7-((Difluoromethyl)sulfonyl)-4-(3,5-difluorophenoxy)-2,3-dihydro-1H-inden-1-ol] | EC50 [2, 5]: 70 nM |
| 6 | – | O=S(=O)(c1ccc(Oc2cc(F)cc(F)c2)c2c1C(O)C(F)(F)C2)C(F)F (centres unmarked) [Compound 9, 7-(difluoromethylsulfonyl)-4-(3,5-difluorophenoxy)-2,2-difluoro-indan-1-ol] | EC50 [2, 5]: 9 nM |
| 460 | – | Cc1c(S(=O)(=O)C(F)F)ccc(Oc2cc(F)cc(F)c2)c1C#N [Compound 34, 3-((Difluoromethyl)sulfonyl)-6-(3,5-difluorophenoxy)-2-methylbenzonitrile] | EC50 [2, 5]: 520 nM |
| 35 | – | O=S(=O)(c1ccc(Oc2cc(F)cc(F)c2)c2c1[C@H](O)CC2)C(F)(F)F [Compound 55, (R)-4-(3,5-Difluorophenoxy)-7-((trifluoromethyl)sulfonyl)-2,3-dihydro-1H-inden-1-ol] | EC50 [2, 5]: 32 nM |
| 640 | – | O=S(=O)(c1ccc(Oc2cc(F)cc(Cl)c2)c(Br)c1CO)C(F)(F)F [Compound 102, (2-Bromo-3-(3-chloro-5-fluorophenoxy)-6-((trifluoromethyl)sulfonyl)phenyl)methanol] | – |
| 1870 | – | N#Cc1cc(S(=O)(=O)C(F)F)ccc1Oc1cc(F)cc(Cl)c1 [Compound 133, 2-(3-Chloro-5-fluorophenoxy)-5-((difluoromethyl)sulfonyl)benzonitrile] | – |
| 1600 | – | O=S(=O)(c1ccc(Oc2cc(F)cc(Cl)c2)c(Br)c1Cl)C(F)(F)F [Compound 179, 2-Bromo-3-chloro-1-(3-chloro-5-fluorophenoxy)-4-((trifluoromethyl)sulfonyl)benzene] | – |
| – | > 100 | N=S(=O)(c1ccc(Cl)c(Br)c1Oc1cc(F)cc(Cl)c1)C(F)(F)F (centres unmarked) [[3-bromo-4-chloro-2-(3-chloro-5-fluoro-phenoxy)phenyl]-imino-oxo-(trifluoromethyl)-λ^6-sulfane] | – |

Continued, molecule first:

| SMILES | EC50 [1, 4] [nM] | IC50 [3] [µM] | also measured |
| --- | --- | --- | --- |
| N#Cc1cc(F)cc(Oc2ccc(S(=N)(=O)CF)c3c2CC(F)(F)[C@H]3O)c1 (single isomer, unassigned) [Compound 274] | 1440 | – | EC50 [2, 5]: 190 nM |
| O=S(=O)(c1ccc(Oc2cc(F)cc(Cl)c2)c2c1C1(CC2)OCCO1)C(F)F [4′-(3-chloro-5-fluoro-phenoxy)-7′-(difluoromethylsulfonyl]spiro[1,3-dioxolane-2,1′-indane]] | – | > 100 | – |
| CNc1c(S(=O)(=O)C(F)(F)F)ccc(Oc2cc(F)cc(Cl)c2)c1C#N [6-(3-chloro-5-fluoro-phenoxy)-2-(methylamino)-3-(trifluoromethylsulfonyl)benzonitrile] | – | > 100 | – |
| CC(=O)c1ccc(Oc2cc(F)cc(Cl)c2)c(Br)c1C#N [6-acetyl-2-bromo-3-(3-chloro-5-fluoro-phenoxy)benzonitrile] | – | > 100 | – |
| O=S(=O)(c1ccc(Oc2cccn3cnnc23)c2c1[C@H](O)CC2)C(F)(F)F [(1R)-4-([1,2,4]triazolo[4,3-a]pyridin-8-yloxy)-7-(trifluoromethylsulfonyl)indan-1-ol] | – | > 100 | – |
| CS(=O)(=O)c1cccc(Oc2ccc(S(=O)(=O)C(F)(F)F)c3c2CC(F)(F)[C@H]3O)c1 [(1S)-2,2-difluoro-4-(3-methylsulfonylphenoxy)-7-(trifluoromethylsulfonyl)indan-1-ol] | – | > 100 | – |
| CNC(=O)/C=C/c1c(S(=O)(=O)C(F)(F)F)ccc(Oc2cc(F)cc(C#N)c2)c1C [(E)-3-[3-(3-cyano-5-fluoro-phenoxy)-2-methyl-6-(trifluoromethylsulfonyl)phenyl]-N-methyl-prop-2-enamide] | – | > 100 | – |
| Cc1c(Oc2cc(F)cc(C#N)c2)ccc(S(=O)(=O)C(F)(F)F)c1/C=C/C(=O)O [(E)-3-[3-(3-cyano-5-fluoro-phenoxy)-2-methyl-6-(trifluoromethylsulfonyl)phenyl]prop-2-enoic acid] | – | > 100 | – |
| O=S(=O)(c1ccc(Oc2cc(F)cc(Cl)c2)c2c1[C@H](O)CC2)C(F)F [Compound 1, (R)-4-(3-chloro-5-fluorophenoxy)-7-((difluoromethyl)sulfonyl)-2,3-dihydro-1H-inden-1-ol] | – | – | EC50 [1, 6]: 250 nM |
| O=S(=O)(c1ccc(Oc2cc(F)cc(Cl)c2)c2c1C(O)C(F)(F)C2)C(F)F (centres unmarked) [Compound 8, 4-(3-chloro-5-fluoro-phenoxy)-7-(difluoromethylsulfonyl)-2,2-difluoro-indan-1-ol] | 33 | – | EC50 [2, 5]: 17 nM |
| O=S(=O)(c1ccc(Oc2cc(F)cc(Cl)c2)c2c1C(O)CC2)C(F)F (centres unmarked) [Compound 17, 4-(3-chloro-5-fluorophenoxy)-7-((difluoromethyl)sulfonyl)-2,3-dihydro-1H-inden-1-ol] | – | – | EC50 [1, 6]: 160 nM |
| O=S(=O)(c1ccc(Oc2cc(F)cc(Cl)c2)c(Cl)c1CO)C(F)F [Compound 41, (2-Chloro-3-(3-chloro-5-fluorophenoxy)-6-((difluoromethyl)sulfonyl)phenyl)methanol] | – | – | EC50 [1, 6]: 570 nM; EC50 [2]: 400 nM |
| O=S(=O)(CF)c1ccc(Oc2cc(F)cc(F)c2)c2c1[C@H](O)CC2 [Compound 60, (R)-4-(3,5-Difluorophenoxy)-7-((fluoromethyl)sulfonyl)-2,3-dihydro-1H-inden-1-ol] | 40 | – | EC50 [2, 5]: 66 nM |
| O=S(=O)(CF)c1ccc(Oc2cc(F)cc(F)c2)c2c1[C@H](O)C(F)(F)C2 [Compound 64, (S)-4-(3,5-Difluorophenoxy)-2,2-difluoro-7-((fluoromethyl)sulfonyl)-2,3-dihydro-1H-inden-1-ol] | 1 | – | EC50 [2, 5]: 5 nM |
| N#Cc1ccc(Oc2cc(F)cc(F)c2)c2c1[C@H](O)C(F)(F)C2 [Compound 67, (S)-7-(3,5-Difluorophenoxy)-2,2-difluoro-3-hydroxy-2,3-dihydro-1H-indene-4-carbonitrile] | – | – | EC50 [1, 6]: 220 nM |
| N#Cc1cc(F)cc(Oc2ccc(S(=O)(=O)C(F)F)c(CO)c2Br)c1 [Compound 80, 3-(2-Bromo-4-((difluoromethyl)sulfonyl)-3-(hydroxymethyl)phenoxy)-5-fluorobenzonitrile] | 630 | – | EC50 [2, 5]: 310 nM |
| CS(=O)(=NC#N)c1ccc(Oc2cc(F)cc(C#N)c2)c2c1[C@H](O)C(F)(F)C2 (some centres unmarked) [Compound 240] | 81 | – | – |
| N#Cc1cc(F)cc(Oc2ccc(/S(CF)=N/C(=O)C(F)(F)F)c3c2CC[C@H]3O)c1 (stereo partly drawn) [N-((R)-7-(3-cyano-5-fluorophenoxy)-3-hydroxy-2,3-dihydro-1H-inden-4-yl)(fluoromethyl)-λ^4-sulfanylidene)-2,2,2-trifluoroacetamide] | – | > 100 | – |
| CS(=O)(=O)c1ccc(Oc2cc(F)cc(F)c2)c2c1C(NC(=O)c1ccc(F)cc1)C(F)(F)C2 (centres unmarked) [N-[4-(3,5-difluorophenoxy)-2,2-difluoro-7-methylsulfonyl-indan-1-yl]-4-fluoro-benzamide] | – | > 100 | – |
| CC(=O)NC1c2c(S(C)(=O)=O)ccc(Oc3cc(F)cc(F)c3)c2CC1(F)F (centres unmarked) [N-[4-(3,5-difluorophenoxy)-2,2-difluoro-7-methylsulfonyl-indan-1-yl]acetamide] | – | > 100 | – |
| CC(C)(C)[S+]([O-])NC1c2c(S(C)(=O)=O)ccc(Oc3cc(F)cc(C#N)c3)c2CC1(F)F (centres unmarked) [N-[4-(3-cyano-5-fluoro-phenoxy)-2,2-difluoro-7-methylsulfonyl-indan-1-yl]-2-methyl-propane-2-sulfinamide] | – | > 100 | – |
| O=S(=O)(c1ccc(Oc2cc(F)cc(Cl)c2)c(Cl)c1CNC1CCOC1)C(F)F (centres unmarked) [N-[[2-chloro-3-(3-chloro-5-fluoro-phenoxy)-6-(difluoromethylsulfonyl)phenyl]methyl]tetra-hydrofuran-3-amine] | – | > 100 | – |
| Cc1c(Oc2cc(F)cc(C#N)c2)ccc(S(=O)(=O)C(F)(F)F)c1/C=C/C(=O)OCc1ccccc1 [benzyl (E)-3-[3-(3-cyano-5-fluoro-phenoxy)-2-methyl-6-(trifluoromethylsulfonyl)phenyl]prop-2-enoate] | – | > 100 | – |
| CCCCOC(=O)/C=C/c1c(S(=O)(=O)C(F)(F)F)ccc(Oc2cc(F)cc(C#N)c2)c1C [butyl (E)-3-[3-(3-cyano-5-fluoro-phenoxy)-2-methyl-6-(trifluoromethylsulfonyl)phenyl]prop-2-enoate] | – | > 100 | – |
| COC(=O)c1cc(F)cc(Oc2ccc(S(=O)(=O)C(F)(F)F)cc2Br)c1 [methyl 3-[2-bromo-4-(trifluoromethylsulfonyl)phenoxy]-5-fluoro-benzoate] | – | > 100 | – |
